# Data taken from US20230411006A1, “METHOD FOR ASSESSING THE AREA UNDER THE CURVE OF AN IMMUNOSUPRESSANT AND ASSOCIATED METHOD AND SYSTEMS” (INSTITUT NATIONAL DE LA SANTE ET DE LA RECHERCHE MEDICALE, priority 2020, published 2023).
# Where two headings read alike, the source gives them in different places.
# Columns and labels:
# [1] = Mycophenolic acid interdose AUC0-12 h in ISBA requests (MPA plasma levels after MMF dose); assay type: in vivo, human; conditions: for AUC: human, plasma, oral, Median, read-out: Interdose AUC0_12 h
# Experimental: For patients and data, the dataset was sequentially refined by selecting the requests where MPA plasma levels were measured using HPLC, including at least 3 times of sampling approximately 20 min (10 to 30 min, C20), 60 min (30 to 100 min, C1) and 180 min (140 to 220 min, C3) after dose intake. Actually, the 20, 60, 180 min is the optimal sampling schedule for MMF. A filter was applied to select the requests with an interdose of 12 h. The other predictors available were the morning dose of MMF, the time elapsed between transplantation and MPA plasma sampling, the type of transplant, the associated immunosuppressant and patient age.
# [2] = Tacrolimus concentrations and interdose AUC in ISBA requests of renal transplant patients; conditions: human, in vivo, oral; for concentration at 3 h: read-out: Concentration C3 at 3 h; for concentration at 1 h: read-out: Concentration C1 at 1 h; for C0: read-out: Through level C0
# Experimental: Tacrolimus requests from ISBA website were extracted and cleaned using the tidyverse framework. Patient with a renal transplantation and tacrolimus concentrations measured using HPLC methods were selected. The requests including at least 3 sample times at 0 minutes (min), 60 min and 180 min after dose intake were selected with a range of selection of 30 min to 100 min for the 60 min and 140 min to 220 min for the 180 min (the 0, 60, 180 min is the optimal sampling schedule for Prograf® and Advagraf® while the optimal sampling times requested for Envarsus® is 0, 8 and 12 h after dose intake and this later formulation was not included in the analysis).
# The dataset was split into two datasets according to the tacrolimus interdose and two independent prediction functions were developed, one for twice a day formulations (TAD; Prograf®) and one for once a day formulations (OAD; Advagraf®).
# The present study used supervised learning to predict the inter-dose AUC for which the reference value have been obtained by MAP-BE in the ISBA website based on 3 concentrations.
# The tacrolimus concentrations were binned into 3 theoretical time classes (concentrations at trough (C0 sampled at t=0 min), at 1 h (C1 sampled between 30 and 100 min) and at 3 h (C3 sampled between 140 and 220 min), leading to 3 columns per patient.
smiles,measurement,setting,value
COc1c(C)c2c(c(O)c1C/C=C(\C)CCC(=O)O)C(=O)OC2 [mycophenolic acid],Interdose AUC0_12 h,"[1]; Maximum, TEST (N = 3219)",163.62 mg·h/L
same,Interdose AUC0_12 h,"[1]; Maximum, TRAIN (N = 9658)",181.39 mg·h/L
same,Interdose AUC0_12 h,"[1]; Minimum, TEST (N = 3219)",3.19 mg·h/L
same,Interdose AUC0_12 h,"[1]; Minimum, TRAIN (N = 9658)",1.12 mg·h/L
same,AUC,[1]; TEST (N = 3219),39200 ng·h/mL
same,AUC,[1]; TRAIN (N = 9658),39300 ng·h/mL
C=CC[C@@H]1/C=C(\C)C[C@H](C)C[C@H](OC)[C@H]2O[C@@](O)(C(=O)C(=O)N3CCCC[C@H]3C(=O)O[C@H](/C(C)=C/[C@@H]3CC[C@@H](O)[C@H](OC)C3)[C@H](C)[C@@H](O)CC1=O)[C@H](C)C[C@@H]2OC [tacrolimus],concentration at 3 h,"[2]; Maximum, OAD, Test (n = 394)",17.9 ng/mL
same,concentration at 3 h,"[2]; Maximum, OAD, Train (n = 1184)",18.4 ng/mL
same,concentration at 3 h,"[2]; Maximum, TAD, Test (n = 1236)",16.9 ng/mL
same,concentration at 3 h,"[2]; Maximum, TAD, Train (n = 3708)",16.6 ng/mL
same,concentration at 1 h,"[2]; Maxmum, OAD, Test (n = 394)",17.1 ng/mL
same,concentration at 1 h,"[2]; Maxmum, OAD, Train (n = 1184)",18.4 ng/mL
same,concentration at 1 h,"[2]; Maxmum, TAD, Test (n = 1236)",21.7 ng/mL
same,concentration at 1 h,"[2]; Maxmum, TAD, Train (n = 3708)",21.4 ng/mL
same,concentration at 1 h,"[2]; Median, OAD, Test (n = 394)",12.3 ng/mL
same,concentration at 3 h,"[2]; Median, OAD, Test (n = 394)",13 ng/mL
same,AUC,"[2]; Median, OAD, Test (n = 394), read-out: Interdose AuC",222 ng·h/mL
same,C0,"[2]; Median, OAD, Test (n = 394)",12.3 ng/mL
same,concentration at 1 h,"[2]; Median, OAD, Train (n = 1184)",12.6 ng/mL
same,concentration at 3 h,"[2]; Median, OAD, Train (n = 1184)",13.9 ng/mL
same,AUC,"[2]; Median, OAD, Train (n = 1184), read-out: Interdose AuC",236 ng·h/mL
same,C0,"[2]; Median, OAD, Train (n = 1184)",12.6 ng/mL
same,concentration at 1 h,"[2]; Median, TAD, Test (n = 1236)",15.4 ng/mL
same,concentration at 3 h,"[2]; Median, TAD, Test (n = 1236)",12.8 ng/mL
same,AUC,"[2]; Median, TAD, Test (n = 1236), read-out: Interdose AuC",130 ng·h/mL
same,C0,"[2]; Median, TAD, Test (n = 1236)",15.4 ng/mL
same,concentration at 1 h,"[2]; Median, TAD, Train (n = 3708)",14.7 ng/mL
same,concentration at 3 h,"[2]; Median, TAD, Train (n = 3708)",12.4 ng/mL
same,AUC,"[2]; Median, TAD, Train (n = 3708), read-out: Interdose AuC",128 ng·h/mL
same,C0,"[2]; Median, TAD, Train (n = 3708)",14.7 ng/mL
same,concentration at 1 h,"[2]; Minimum, OAD, Test (n = 394)",8.6 ng/mL
same,concentration at 3 h,"[2]; Minimum, OAD, Test (n = 394)",9.51 ng/mL
same,concentration at 1 h,"[2]; Minimum, OAD, Train (n = 1184)",9 ng/mL
same,concentration at 3 h,"[2]; Minimum, OAD, Train (n = 1184)",9.8 ng/mL
same,concentration at 1 h,"[2]; Minimum, TAD, Test (n = 1236)",10.5 ng/mL
same,concentration at 3 h,"[2]; Minimum, TAD, Test (n = 1236)",9.6 ng/mL
same,concentration at 1 h,"[2]; Minimum, TAD, Train (n = 3708)",10.2 ng/mL
same,concentration at 3 h,"[2]; Minimum, TAD, Train (n = 3708)",9.3 ng/mL
same,AUC,"[2]; OAD, cleaned ISBA datasets, read-out: interdose AUCs range",44 to 698 ng·h/mL
same,AUC,"[2]; TAD, cleaned ISBA datasets, read-out: interdose AUCs range",22 to 380 ng·h/mL
